ChEMBL document CHEMBL5634156, “A potent and selective cis-amide inhibitor of ryanodine receptor 2 as a candidate for cardiac arrhythmia treatment” (Eur J Med Chem, 2023)
pEC50: −log10 of the molar value. Active and inactive are the calls of the source. The calls are words filed in the database; no cut-off is given here.

Assays:
Assay type in all cases: cell-based
[1] = biological target: Ryanodine receptor 2 (Mus musculus, UniProt E9Q401); test: Inhibition of Full length wild type mouse RyR2 expressed in Flp-In-T-REx-293 cells assessed as increase in Ca2+ release endoplasmic reticulum by flex-station 3 fluorometer analysis
[2] = test system: HEK293; test: Inhibition of RyR1 R2163C mutant (unknown origin) expressed in HEK293 cells; details: Homo sapiens
[3] = biological target: Ryanodine receptor 2 (Mus musculus) (UniProt E9Q401); test: Inhibition of Full length mouse RyR2 expressed in human Flp-In-T-REx-293 cells
[4] = biological target: Ryanodine receptor 2 (Mus musculus) (UniProt E9Q401); test: Inhibition of Full length wild type mouse RyR2 expressed in Flp-In-T-REx-293 cells assessed as increase in Ca2+ release in endoplasmic reticulum at 30 uM by flex-station 3 fluorometer analysis
[5] = biological target: Ryanodine receptor 2 (Mus musculus) (UniProt E9Q401); test: Inhibition of Full length wild type mouse RyR2 expressed in Flp-In-T-REx-293 cells assessed as caffeine-induced increase in Ca2+ release in endoplasmic reticulum at 0.0001 to 100 uM by flex-station 3 fluorometer analysis; details: dose 0.0001-100 µM
[6] = test system: HEK293; test: Inhibition of RyR3 R2163C mutant (unknown origin) expressed in HEK293 cells assessed as caffeine-induced increase in Ca2+ release at 100 uM; details: Homo sapiens
[7] = test system: Cardiomyocyte; test: Inhibition of RyR2 R420W mutant in mouse Cardiomyocyte assessed as 0.5 Hz field-pulse stimulated suppression of abnormal Ca2+ waves incubated for 3 mins by ROI analysis
[8] = biological target: Ryanodine receptor 1 (Homo sapiens) (UniProt P21817); test: Inhibition of RyR1 (unknown origin) expressed in HEK293 cells assessed as caffeine-induced increase in Ca2+ release at 100 uM by flex-station 3 fluorometer analysis
[9] = test system: Cardiomyocyte; test: Inhibition of RyR2 R420W mutant in mouse Cardiomyocyte assessed as 0.5 Hz field-pulse stimulated suppression of abnormal Ca2+ waves at 30 to 100 nM incubated for 15 seconds by ROI analysis; details: dose 30-100 nM, time 15.0 sec

Sequence of Ryanodine receptor 2 (Mus musculus) (E9Q401 whole entry): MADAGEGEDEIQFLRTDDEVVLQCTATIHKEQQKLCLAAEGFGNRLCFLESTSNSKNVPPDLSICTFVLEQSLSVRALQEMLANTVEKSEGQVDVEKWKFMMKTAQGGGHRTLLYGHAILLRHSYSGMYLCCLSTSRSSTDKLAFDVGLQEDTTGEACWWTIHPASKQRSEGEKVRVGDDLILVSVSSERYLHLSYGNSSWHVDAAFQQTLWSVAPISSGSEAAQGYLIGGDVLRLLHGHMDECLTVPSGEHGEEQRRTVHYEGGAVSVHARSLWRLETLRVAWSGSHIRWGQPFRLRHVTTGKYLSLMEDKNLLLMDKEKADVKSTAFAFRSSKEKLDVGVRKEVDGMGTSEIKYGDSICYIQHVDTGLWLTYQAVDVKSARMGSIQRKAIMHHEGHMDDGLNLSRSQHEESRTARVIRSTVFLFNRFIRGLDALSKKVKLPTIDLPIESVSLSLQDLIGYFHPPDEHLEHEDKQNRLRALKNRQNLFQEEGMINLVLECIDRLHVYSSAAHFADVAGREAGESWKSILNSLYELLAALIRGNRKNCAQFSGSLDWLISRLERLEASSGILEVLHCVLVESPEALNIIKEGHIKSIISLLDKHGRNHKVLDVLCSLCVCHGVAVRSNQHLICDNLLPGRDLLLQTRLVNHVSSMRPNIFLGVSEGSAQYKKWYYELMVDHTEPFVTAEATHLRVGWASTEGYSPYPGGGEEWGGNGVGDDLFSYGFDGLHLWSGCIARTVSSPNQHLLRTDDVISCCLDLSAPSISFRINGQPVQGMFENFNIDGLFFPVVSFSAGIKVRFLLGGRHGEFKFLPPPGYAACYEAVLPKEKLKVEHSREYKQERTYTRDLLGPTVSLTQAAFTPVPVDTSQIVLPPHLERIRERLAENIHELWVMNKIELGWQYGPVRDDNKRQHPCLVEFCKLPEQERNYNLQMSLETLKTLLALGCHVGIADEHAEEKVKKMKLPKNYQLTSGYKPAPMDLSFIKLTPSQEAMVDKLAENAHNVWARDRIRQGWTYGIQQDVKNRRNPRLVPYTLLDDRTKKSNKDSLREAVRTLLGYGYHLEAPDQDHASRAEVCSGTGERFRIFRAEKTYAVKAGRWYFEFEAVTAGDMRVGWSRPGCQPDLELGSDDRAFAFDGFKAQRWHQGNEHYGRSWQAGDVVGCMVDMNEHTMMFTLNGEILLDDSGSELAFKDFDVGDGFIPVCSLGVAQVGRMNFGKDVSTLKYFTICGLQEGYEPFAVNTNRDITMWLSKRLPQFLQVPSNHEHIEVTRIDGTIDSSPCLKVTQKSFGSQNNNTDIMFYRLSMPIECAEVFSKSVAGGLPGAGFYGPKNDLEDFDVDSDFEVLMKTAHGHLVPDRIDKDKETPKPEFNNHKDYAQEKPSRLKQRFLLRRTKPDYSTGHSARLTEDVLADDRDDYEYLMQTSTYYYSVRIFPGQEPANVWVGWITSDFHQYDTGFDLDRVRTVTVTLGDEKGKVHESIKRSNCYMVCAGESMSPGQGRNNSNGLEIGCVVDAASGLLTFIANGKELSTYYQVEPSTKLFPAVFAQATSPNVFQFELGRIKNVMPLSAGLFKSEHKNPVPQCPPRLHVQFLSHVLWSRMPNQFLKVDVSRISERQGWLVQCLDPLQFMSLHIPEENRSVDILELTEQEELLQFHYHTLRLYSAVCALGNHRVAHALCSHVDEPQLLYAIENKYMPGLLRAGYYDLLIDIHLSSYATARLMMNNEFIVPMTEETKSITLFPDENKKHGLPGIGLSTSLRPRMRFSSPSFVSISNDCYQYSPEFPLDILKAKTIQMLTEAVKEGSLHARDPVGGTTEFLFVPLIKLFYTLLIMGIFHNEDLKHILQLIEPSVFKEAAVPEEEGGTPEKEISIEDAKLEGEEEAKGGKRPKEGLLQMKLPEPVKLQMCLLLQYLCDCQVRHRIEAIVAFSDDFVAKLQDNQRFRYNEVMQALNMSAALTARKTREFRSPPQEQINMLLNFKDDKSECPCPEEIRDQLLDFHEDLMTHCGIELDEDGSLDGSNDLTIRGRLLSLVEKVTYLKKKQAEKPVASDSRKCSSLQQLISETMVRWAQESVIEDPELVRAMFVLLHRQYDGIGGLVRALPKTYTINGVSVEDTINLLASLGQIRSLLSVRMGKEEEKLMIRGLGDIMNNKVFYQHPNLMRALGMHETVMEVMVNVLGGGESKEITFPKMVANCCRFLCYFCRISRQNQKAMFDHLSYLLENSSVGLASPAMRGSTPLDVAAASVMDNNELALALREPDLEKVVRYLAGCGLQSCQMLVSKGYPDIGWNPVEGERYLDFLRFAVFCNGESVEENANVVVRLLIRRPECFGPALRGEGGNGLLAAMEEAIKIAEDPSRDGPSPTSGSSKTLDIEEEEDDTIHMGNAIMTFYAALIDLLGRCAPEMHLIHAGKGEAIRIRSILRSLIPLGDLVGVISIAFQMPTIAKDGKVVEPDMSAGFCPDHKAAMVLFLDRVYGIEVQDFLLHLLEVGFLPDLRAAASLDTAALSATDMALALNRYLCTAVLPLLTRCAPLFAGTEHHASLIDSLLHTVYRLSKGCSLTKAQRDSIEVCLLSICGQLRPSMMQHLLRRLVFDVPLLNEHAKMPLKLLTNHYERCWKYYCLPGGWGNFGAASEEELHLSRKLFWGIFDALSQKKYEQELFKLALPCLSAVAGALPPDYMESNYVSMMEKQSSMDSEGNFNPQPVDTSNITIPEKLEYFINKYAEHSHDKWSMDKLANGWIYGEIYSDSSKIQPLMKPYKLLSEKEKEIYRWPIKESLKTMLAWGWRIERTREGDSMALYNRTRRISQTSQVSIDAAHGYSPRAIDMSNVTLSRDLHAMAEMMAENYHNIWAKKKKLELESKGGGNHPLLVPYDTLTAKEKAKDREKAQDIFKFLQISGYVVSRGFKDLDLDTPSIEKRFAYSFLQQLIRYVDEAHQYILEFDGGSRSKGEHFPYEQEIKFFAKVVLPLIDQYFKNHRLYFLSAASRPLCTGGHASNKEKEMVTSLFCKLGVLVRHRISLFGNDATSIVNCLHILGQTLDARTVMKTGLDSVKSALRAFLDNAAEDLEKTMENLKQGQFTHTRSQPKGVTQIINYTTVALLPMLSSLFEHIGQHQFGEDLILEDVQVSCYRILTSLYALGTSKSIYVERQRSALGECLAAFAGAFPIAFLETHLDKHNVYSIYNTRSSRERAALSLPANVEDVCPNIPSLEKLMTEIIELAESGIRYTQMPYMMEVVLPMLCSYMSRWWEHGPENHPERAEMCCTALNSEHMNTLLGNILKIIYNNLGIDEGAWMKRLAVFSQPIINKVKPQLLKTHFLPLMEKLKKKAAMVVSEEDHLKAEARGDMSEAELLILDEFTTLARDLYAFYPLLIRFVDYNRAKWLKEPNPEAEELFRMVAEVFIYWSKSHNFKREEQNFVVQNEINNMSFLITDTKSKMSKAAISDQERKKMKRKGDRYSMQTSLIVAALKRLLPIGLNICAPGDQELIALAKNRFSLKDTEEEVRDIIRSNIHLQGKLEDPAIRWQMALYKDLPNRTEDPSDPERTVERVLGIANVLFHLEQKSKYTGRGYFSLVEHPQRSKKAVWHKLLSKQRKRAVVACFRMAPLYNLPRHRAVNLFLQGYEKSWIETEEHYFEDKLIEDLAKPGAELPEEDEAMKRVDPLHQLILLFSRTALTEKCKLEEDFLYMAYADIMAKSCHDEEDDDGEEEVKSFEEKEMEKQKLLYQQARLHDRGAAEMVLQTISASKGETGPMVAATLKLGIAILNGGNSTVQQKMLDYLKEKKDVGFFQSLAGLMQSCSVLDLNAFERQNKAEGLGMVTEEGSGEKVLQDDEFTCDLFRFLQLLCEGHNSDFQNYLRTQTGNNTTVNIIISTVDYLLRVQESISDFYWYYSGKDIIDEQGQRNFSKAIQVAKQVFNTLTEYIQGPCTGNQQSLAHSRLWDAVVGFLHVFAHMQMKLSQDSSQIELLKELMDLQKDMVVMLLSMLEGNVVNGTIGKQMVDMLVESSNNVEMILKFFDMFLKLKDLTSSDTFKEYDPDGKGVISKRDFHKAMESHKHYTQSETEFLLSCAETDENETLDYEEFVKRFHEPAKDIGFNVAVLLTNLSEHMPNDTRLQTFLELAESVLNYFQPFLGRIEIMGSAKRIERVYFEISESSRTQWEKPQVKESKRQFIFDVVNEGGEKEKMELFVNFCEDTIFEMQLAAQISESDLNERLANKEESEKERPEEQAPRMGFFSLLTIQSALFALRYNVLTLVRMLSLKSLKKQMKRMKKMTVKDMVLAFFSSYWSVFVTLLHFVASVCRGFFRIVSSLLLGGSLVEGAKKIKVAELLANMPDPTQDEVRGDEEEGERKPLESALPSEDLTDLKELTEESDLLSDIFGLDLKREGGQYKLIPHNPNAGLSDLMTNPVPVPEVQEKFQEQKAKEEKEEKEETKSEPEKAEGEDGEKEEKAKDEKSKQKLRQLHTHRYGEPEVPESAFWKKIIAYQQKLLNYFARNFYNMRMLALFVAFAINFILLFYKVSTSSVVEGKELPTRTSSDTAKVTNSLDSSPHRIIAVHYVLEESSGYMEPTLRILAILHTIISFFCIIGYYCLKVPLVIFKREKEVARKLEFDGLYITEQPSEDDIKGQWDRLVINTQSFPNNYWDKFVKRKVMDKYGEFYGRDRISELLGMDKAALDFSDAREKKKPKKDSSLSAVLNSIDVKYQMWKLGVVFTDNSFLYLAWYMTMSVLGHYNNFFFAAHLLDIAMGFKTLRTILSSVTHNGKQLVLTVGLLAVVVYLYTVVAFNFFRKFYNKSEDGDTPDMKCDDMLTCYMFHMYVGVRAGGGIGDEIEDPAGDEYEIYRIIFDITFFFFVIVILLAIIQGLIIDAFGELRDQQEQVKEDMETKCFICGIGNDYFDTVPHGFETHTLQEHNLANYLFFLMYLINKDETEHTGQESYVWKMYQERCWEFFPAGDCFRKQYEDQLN
Sequence of Ryanodine receptor 2 (E9Q401 whole entry): as above

Compound | pEC50 [1] | further results
COc1cccc(-c2nnn(CC(=O)Nc3ccccc3)n2)c1 | < 4.52 | –
CN(C(=O)Cn1nnc(-c2cccc(F)c2)n1)c1ccc(F)cc1 | 7.47 | –
COc1cccc(-c2nnn(CC(=O)N3CCc4ccccc43)n2)c1 | < 4.52 | –
COc1cccc(-c2nnn(CC(=O)Nc3ccc(F)cc3)n2)c1 | < 4.52 | –
O=C(Cn1nnc(-c2cc(F)cc(F)c2)n1)Nc1ccc(F)cc1 | < 4.52 | –
CN(C(=O)Cn1nnc(-c2ccc(F)cc2)n1)c1ccccc1 | 6.66 | –
Nc1nc2ccc(OC(F)(F)F)cc2s1 [RILUZOLE] | 5.00 | –
COc1cc(-c2nnn(CC(=O)N(C)c3ccc(F)cc3)n2)ccc1F | 7.23 | –
COc1ccc(NC(=O)Cn2nnc(-c3ccccc3)n2)cc1 | < 4.52 | –
CN(C(=O)Cn1nnc(-c2ccccc2F)n1)c1ccccc1 | 6.34 | –
COc1ccccc1N(C)C(=O)Cn1nnc(-c2ccccc2)n1 | < 4.52 | –
COc1cccc(-c2nnn(CC(=O)N(C)c3ccc(OC)c(F)c3)n2)c1 | 7.32 | –
O=C(Cn1nnc(-c2cccc(F)c2)n1)N1CCc2ccccc21 | < 4.52 | –
CN(C(=O)Cn1nnc(-c2ccccc2)n1)c1cccc(F)c1 | 6.63 | –
COc1ccccc1-c1nnn(CC(=O)Nc2ccccc2)n1 | < 4.52 | –
CCN(C(=O)Cn1nnc(-c2ccccc2)n1)c1ccccc1 | 5.39 | inhibition [2]: inactive; inhibition [3]: Active
COc1cccc(-c2nnn(CC(=O)N(C)c3ccc(OC)c(OC)c3)n2)c1 | < 4.52 | –
COc1ccccc1-c1nnn(CC(=O)N(C)c2ccccc2)n1 | 5.53 | –
COc1ccc(N(C)C(=O)Cn2nnc(-c3cccc(F)c3)n2)cc1 | 7.55 | –
CN(C(=O)Cn1nnc(-c2cc(F)cc(F)c2)n1)c1ccc(F)cc1 | 7.89 | inhibition [4]: inactive; inhibition [5]: Active; inhibition [6]: inactive; inhibition [7]: Active; inhibition [8]: inactive; inhibition [9]: Active

Compound | pEC50 [1] | further results
COc1ccc(N(C)C(=O)Cn2nnc(-c3cccc(OC)c3)n2)cc1 | 7.59 | –
CN(C(=O)Cn1nnc(-c2cccc(F)c2)n1)c1ccccc1 | 7.02 | –
COc1cccc(N(C)C(=O)Cn2nnc(-c3ccccc3)n2)c1 | 4.60 | –
CN(C(=O)Cn1nnc(-c2ccccc2)n1)c1ccccc1 | 6.16 | –
COc1ccc(-c2nnn(CC(=O)N(C)c3ccc(F)cc3)n2)cc1OC | 5.94 | –
O=C(Cn1nnc(-c2ccccc2)n1)Nc1ccccc1 | < 4.52 | –
CC(C)NCC(O)c1ccc(O)c(O)c1 (stereo not drawn) | – | inhibition [7]: inactive; inhibition [9]: inactive
CN(C(=O)Cn1nnc(-c2ccccc2)n1)c1ccccc1F | 6.07 | –
COc1ccc(-c2nnn(CC(=O)Nc3ccccc3)n2)cc1 | < 4.52 | –
COc1ccc(-c2nnn(CC(=O)N(C)c3ccccc3)n2)cc1 | 5.91 | –
COc1cccc(-c2nnn(CC(=O)N(C)c3ccccc3)n2)c1 | 6.74 | –
O=C(Cn1nnc(-c2cccc(F)c2)n1)Nc1ccccc1 | < 4.52 | –
COc1cccc(-c2nnn(CC(=O)N(C)c3ccc(F)cc3)n2)c1 | 7.64 | –
COc1ccc(N(C)C(=O)Cn2nnc(-c3ccccc3)n2)cc1 | 6.87 | –
CCCN(C(=O)Cn1nnc(-c2ccccc2)n1)c1ccccc1 | 4.53 | –
O=C(Cn1nnc(-c2cccc(F)c2)n1)Nc1ccc(F)cc1 | < 4.52 | –
COC(=O)c1c(C)cc(O)cc1O [METHYL ORSELLINATE] | 5.96 | –
CN(C(=O)Cn1nnc(-c2ccccc2)n1)c1ccc(F)cc1 | 7.30 | –
CN(C(=O)Cn1nnc(-c2cc(F)cc(F)c2)n1)c1ccccc1 | 7.66 | –
